According to patent publication US20250236589A1, “THERAPEUTIC PHENETHYLAMINE COMPOSITIONS AND METHODS OF USE” (Cybin IRL Limited, priority 2022, published 2025):
Like-named read-outs stand apart in the source and are kept apart here. Marks after values point to notes of the source that are not given here.

Key:
5-HT2A receptor [1] = target: T1, 5-HT2A receptor (Homo sapiens (Human), UniProt P28223); assay: 5-HT2A radioligand competition binding ([3H]LSD or [3H]ketanserin)
5-HT2A receptor [2] = target: T1, 5-HT2A receptor; assay: 5-HT2A functional assay, IP1 (IPOne); assay type: cell-based; settings: IP1 assay; for EC50: read-out: 5-HT2A EC50; for Emax: relative to 5-HT
Protocol: After incubation, cells were lysed and fluorescence acceptor and donor were added. FRET was measured after 60 min at room temperature using a microplate reader (Envision, Perkin Elmer). TRUPATH assays followed a similar workflow, except that different reagents were used, and LiCl was not included in the samples; the protocol was based on the report by Olsen, R. H. J. et al., cited above.

[3] = Plasma and brain concentrations after dosing in mice (screening); assay type: in vivo, mouse; settings: mouse; for concentration at 15 min / concentration at 160 min: sc, mice, 3 mg/kg s.c.; for Kp at 160 min: brain/plasma, subcutaneous, 3 mg/kg, 160 min after 3 mg/kg, read-out: brain/plasma ratio, 160 min
mice = assay: Head-twitch response (HTR) screening in mice; assay type: in vivo, mouse
Protocol: Protocols were followed according to Canal C E, Morgan D. Head-twitch response in rodents induced by the hallucinogen 2,5-dimethoxy-4-iodoamphetamine: a comprehensive history, a re-evaluation of mechanisms, and its utility as a model. […] Mice were housed in standard laboratory cages with ad libitum access to food and water and were acclimated to the vivarium for at least one week prior to testing in a procedure room. In a typical experiment, mice were injected 3 mg/kg of test article subcutaneously. Mice were placed immediately thereafter in a clear, polycarbonate box (46×20×20 cm), and HTRs were counted at various time points after administration using hand-held tally counters. In a separate experiment, plasma and brain samples were collected at 15 and 160 minutes after administration of test compounds to measure plasma and brain concentrations. Quantification was performed using LC-MS/MS method (LLOQ, 9 nM).

[4] = In vitro liver microsome stability (RLM); assay type: in vitro ADME; settings: rat, rat liver microsomes, 0.5 mg/mL microsomes, NADPH, read-out: RLM, t1/2
Protocol: In vitro stability was determined in Human (HLM), Rat (RLM), Mouse (MsLM), and dog (DLM) Liver Microsomes. All liver microsomes were purchased from a commercial supplier (e.g. XenoTech). The reaction mixture, minus NADPH, was prepared as described below. The test compound was added into the reaction mixture at a final concentration of 1 μM or co-dosed with their deuterated analog(s) at 1 μM each. The control compound, testosterone, was run simultaneously with the test compound in a separate reaction. The reaction mixture (without cofactor) was equilibrated in a shaking water bath at 37° C. for 5 minutes. The reaction was initiated by the addition of the cofactor, and the mixture was incubated in a shaking water bath at 37° C. Aliquots (150 μL) were withdrawn at 0, 5, 10, 20, 30, 60, and 120 minutes. Test compound and testosterone samples were immediately combined with 150 μL of ice-cold acetonitrile (ACN) containing 0.1% formic acid and internal standard to terminate the reaction. The samples were then mixed and centrifuged to precipitate proteins. All samples were assayed by LC-MS/MS using electrospray ionization. The peak area response ratio (PARR) of analyte to internal standard at each time point was compared to the PARR at time 0 to determine the percent remaining at each time point. Half-lives were calculated using GraphPad software, fitting to a single-phase exponential decay equation.

human 5-HT2B receptor = human 5-HT2B receptor (Homo sapiens (Human), UniProt P41595); assay: 5-HT2B functional assay, IP1 (IPOne); assay type: cell-based; settings: for Emax: IP1 assay, relative to 5-HT
Protocol: 5-HT2A,2B,2C receptor-mediated Gq activation—canonical signaling pathways—[phosphoinositide hydrolysis leading to the production of inositol phosphate 1 (IP1, IPOne, Cisbio assay) or direct G-protein activation using TRUPATH technology]were measured as previously described (Porter, R. H. P., Benwell, K. R., Lamb, H., Malcolm, C. S., Allen, N. F., Revell, D. F., Adams, D. R. and Sheardown, M. J., 1999, Functional characterization of agonists at recombinant human 5-HT2a, 5HT2b and 5-HT2c receptors in CHO-K1 cells, Brit J Pharmacol 128, 13; Olsen, R. H. J., DiBerto, J. F., English, J. G. et al. TRUPATH, an open-source biosensor platform for interrogating the GPCR transducerome. […] Briefly, for the IPOne assay, for 5-HT2ARs, CHO-K1 or HEK-293 cells were incubated with test articles and 5-HT (positive control) in stimulation buffer containing LiCl. After incubation, cells were lysed and fluorescence acceptor and donor were added. FRET was measured after 60 min at room temperature using a microplate reader (Envision, Perkin Elmer). TRUPATH assays followed a similar workflow, except that different reagents were used, and LiCl was not included in the samples; the protocol was based on the report by Olsen, R. H. J. et al., cited above.

MAO-A = MAO-A (Homo sapiens (Human), UniProt P21397); assay: Recombinant human MAO-A activity (stability); assay type: in vitro ADME; settings: hrMAO 0.02 mg/mL, read-out: MAO-A, t1/2
Protocol: hrMAO-A and MAO control were purchased from XenoTech. The reaction mixture was prepared as described below. The test compound was added into the reaction mixture at a final concentration of 1 μM or co-dosed with their deuterated analog at 1 μM each. The positive control kynuramine (25 μM) was run simultaneously with the test compound in a separate reaction. The reaction mixture (without test compounds or kynuramine) was equilibrated in a shaking water bath at 37° C. for 5 minutes. The reaction was initiated by the addition of the test compound or kynuramine, and the mixture was incubated in a shaking water bath at 37° C. Aliquots (150 μL) of the test compound reaction mixture were withdrawn at 0, 5, 10, 20, 30, 60, and 120 minutes. Aliquots (150 μL) of the positive control reaction mixture were withdrawn at 0 and 30 minutes. Test compound(s) and kynuramine samples were immediately combined with 150 μL of ice-cold 100% acetonitrile containing 0.1% formic acid and internal standard (0.2 μM metoprolol) to terminate the reaction. The samples were then mixed and centrifuged to precipitate proteins. All samples were assayed by LC-MS/MS. The peak area response ratio (PARR) of analyte to internal standard at each time point was compared to the PARR at time 0 to determine the percent remaining at each time point. Half-lives were calculated using GraphPad software, fitting to a single-phase exponential decay equation.

[5] = read-out: 5-HT2A, Ki, radioligand [3H]LSD
[6] = brain, read-out: Brain, 160 min
[7] = plasma, read-out: Plasma, 15 min
[8] = plasma, read-out: Plasma, 160 min
[9] = read-out: 5-HT2A, Ki, radioligand [3H]ketanserin

Chain of MAO-A (P21397 whole entry, looked up): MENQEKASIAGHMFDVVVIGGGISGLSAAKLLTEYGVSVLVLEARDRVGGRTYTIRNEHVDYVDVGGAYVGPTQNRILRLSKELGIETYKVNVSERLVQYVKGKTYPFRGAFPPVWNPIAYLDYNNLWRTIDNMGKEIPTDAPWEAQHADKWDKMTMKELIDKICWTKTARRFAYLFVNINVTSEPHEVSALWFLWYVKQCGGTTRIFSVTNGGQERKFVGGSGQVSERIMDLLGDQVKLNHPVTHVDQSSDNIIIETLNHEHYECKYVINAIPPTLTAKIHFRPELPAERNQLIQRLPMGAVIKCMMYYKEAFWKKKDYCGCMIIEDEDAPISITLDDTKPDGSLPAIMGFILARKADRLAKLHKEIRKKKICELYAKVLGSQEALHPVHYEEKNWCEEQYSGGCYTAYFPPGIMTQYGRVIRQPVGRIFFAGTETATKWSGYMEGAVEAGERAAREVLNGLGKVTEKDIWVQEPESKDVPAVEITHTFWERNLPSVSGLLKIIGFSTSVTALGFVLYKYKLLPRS
Chain of human 5-HT2B receptor (P41595 whole entry, looked up): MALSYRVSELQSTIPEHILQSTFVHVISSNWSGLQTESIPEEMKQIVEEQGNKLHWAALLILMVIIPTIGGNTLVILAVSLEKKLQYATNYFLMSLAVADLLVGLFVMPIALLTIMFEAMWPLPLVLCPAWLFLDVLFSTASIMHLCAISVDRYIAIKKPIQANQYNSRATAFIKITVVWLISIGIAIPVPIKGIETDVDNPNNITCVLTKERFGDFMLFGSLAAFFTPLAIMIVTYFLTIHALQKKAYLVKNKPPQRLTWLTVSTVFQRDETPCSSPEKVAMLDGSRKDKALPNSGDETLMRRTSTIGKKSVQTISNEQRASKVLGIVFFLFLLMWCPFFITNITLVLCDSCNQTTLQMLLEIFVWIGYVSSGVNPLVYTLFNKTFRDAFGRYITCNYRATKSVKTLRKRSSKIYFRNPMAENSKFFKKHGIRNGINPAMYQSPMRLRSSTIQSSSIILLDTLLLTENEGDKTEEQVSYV

For `COc1cc(C(C)(C)C)c(OC)cc1CCN` [VI-1, 2-(4-(tert-butyl)-2,5-dimethoxyphenyl)ethan-1-amine], the Ki (5-HT2A receptor [1]; [5]) was 9.9 nM, the “2A/2B EC50 Selectivity” value (5-HT2A receptor [2]) was 6 and the EC50 (5-HT2A receptor [2]) was 4.2 nM. The Emax (5-HT2A receptor [2]) was 87%, the concentration at 15 min ([3]; brain, read-out: Brain 15 min) was 2900 nM and the concentration at 160 min [3, 6] was 4600 nM. It also gave a Kp at 160 min [3] of 57.1, a concentration at 15 min [3, 7] of 250 nM and a concentration at 160 min [3, 8] of 80 nM. The “HTR 15-25 min” value (mice; mice, 3 mg/kg s.c.) was 24.5, the “HTR 160-170 min” value (mice; mice, 3 mg/kg s.c.) was 17.7 and the half-life at 1 μM [4] was 2.4 min. For the same molecule, the EC50 (human 5-HT2B receptor) was 25 nM and the Emax (human 5-HT2B receptor) was 87%.
For `COc1cc(SCC(F)(F)C(F)F)c(OC)cc1CCN` [Compound I-10, 2-(2,5-dimethoxy-4-((2,2,3,3-tetrafluoropropyl)thio)phenyl)ethan-1-amine], the “affinity at 5-HT2A receptors (in words)” value (5-HT2A receptor [1]) was “high affinity”, the “2A/2B EC50 Selectivity” value (5-HT2A receptor [2]) was 2.7 and the EC50 (5-HT2A receptor [2]) was 89 nM. The Emax (5-HT2A receptor [2]) was 76%, the concentration at 15 min ([3]; brain, read-out: Brain 15 min) was 900 nM and the concentration at 160 min [3, 6] was 1100 nM. For the same molecule, the Kp at 160 min [3] was 12.3, the concentration at 15 min [3, 7] was 900 nM and the concentration at 160 min [3, 8] was 100 nM. The “HTR 15-25 min” value (mice; mice, 3 mg/kg s.c.) was 3.4, the “HTR 160-170 min” value (mice; mice, 3 mg/kg s.c.) was 2.7 and the EC50 (human 5-HT2B receptor) was 240 nM. It also gave an Emax (human 5-HT2B receptor) of 84%.
For `COc1cc(SCCC(F)(F)F)c(OC)cc1CCN` [Compound I-2, 2-(2,5-dimethoxy-4-((3,3,3-trifluoropropyl)thio)phenyl)ethan-1-amine], the “affinity at 5-HT2A receptors (in words)” value (5-HT2A receptor [1]) was “high affinity”, the Ki (5-HT2A receptor [1]; [5]) was 8.5 nM and the half-life at 1 μM [4] was 24.8 min. It also gave a half-life at 1 μM (MAO-A) of 30.9 min.
Work on `[2H]C([2H])([2H])Oc1cc(C(C)(C)C)c(OC([2H])([2H])[2H])cc1CCN` [II-3, 2-(4-(tert-butyl)-2,5-bis(methoxy-d3)phenyl)ethan-1-amine] yielded a Ki (5-HT2A receptor [1]; [5]) of 11 nM and a half-life at 1 μM [4] of 2.4 min.
For `C#CCSc1cc(OC)c(CCN)cc1OC` [Compound I-11, 2-(2,5-dimethoxy-4-(prop-2-yn-1-ylthio)phenyl)ethan-1-amine], the Ki (5-HT2A receptor [1]; [5]) was 1.3 nM, the “HTR 15-25 min” value (mice; calculated using 0-30 min) was 24.5 #### and the “HTR 160-170 min” value (mice; mice, 3 mg/kg s.c.) was 16.7.
With `COc1cc(SC)c(OC)cc1CCN` [Reference Compound 3, 2-(2,5-dimethoxy-4-(methylthio)phenyl)ethan-1-amine, reference compound] the Ki (5-HT2A receptor [1]; [9]) was 296 nM, the “HTR 15-25 min” value (mice; measured 0-15 min) was 19 ## and the half-life at 1 μM [4] was 5.2 min. It also gave a half-life at 1 μM (MAO-A) of over 120 min.
In the case of `[2H]C([2H])([2H])Oc1cc(C(F)(F)F)c(OC([2H])([2H])[2H])cc1CCN` [II-23, 2-(2,5-bis(methoxy-d3)-4-(trifluoromethyl)phenyl)ethan-1-amine], the Ki (5-HT2A receptor [1]; [9]) is reported as 55 nM, the half-life at 1 μM [4] is reported as 21.4 min and the half-life at 1 μM (MAO-A) is reported as over 120 min.
In the case of `[2H]C([2H])([2H])Oc1cc(C2CCCC2)c(OC([2H])([2H])[2H])cc1CCN` [II-4, 2-(4-cyclopentyl-2,5-bis(methoxy-d3)phenyl)ethan-1-amine], the Ki (5-HT2A receptor [1]) is reported as over 150 nM, the Ki (5-HT2A receptor [1]; [5]) is reported as 202 nM and the half-life at 1 μM [4] is reported as 7.5 min. It also gave a half-life at 1 μM (MAO-A) of over 120 min.
Work on `[2H]C([2H])([2H])C(c1cc(OC)c(CCN)cc1OC)(C([2H])([2H])[2H])C([2H])([2H])[2H]` [III-2, 2-(2,5-dimethoxy-4-(2-(methyl-d3)propan-2-yl-1,1,1,3,3,3-d6)phenyl)ethan-1-amine] yielded a Ki (5-HT2A receptor [1]) of 10 nM and a half-life at 1 μM [4] of 2.5 min.
In the case of `COc1cc(C2CCCC2)c(OC)cc1CCN` [Compound I-13, 2-(4-cyclopentyl-2,5-dimethoxyphenyl)ethan-1-amine], the “affinity at 5-HT2A receptors (in words)” value (5-HT2A receptor [1]) is reported as “appreciable affinity”, the Ki (5-HT2A receptor [1]; [5]) is reported as 150 nM and the “HTR (in words)” value (mice; 3 mg/kg) is reported as “did not elicit an HTR”. For the same molecule, the “HTR 15-25 min” value (mice; mice, 3 mg/kg s.c.) was 2.7, the half-life at 1 μM [4] was 7.8 min and the half-life at 1 μM (MAO-A) was over 120 min.
Molecule `COc1cc(OCCC(F)F)c(OC)cc1CCN` [Compound I-6, 2-(4-(3,3-difluoropropoxy)-2,5-dimethoxyphenyl)ethan-1-amine] has a Ki (5-HT2A receptor [1]) of over 150 nM and a half-life at 1 μM [4] of over 120 min.
For `COc1cc(OCCC(F)(F)F)c(OC)cc1CCN` [Compound I-5, 2-(2,5-dimethoxy-4-(3,3,3-trifluoropropoxy)phenyl)ethan-1-amine], the Ki (5-HT2A receptor [1]) was over 150 nM and the half-life at 1 μM [4] was over 120 min.
With `[2H]C([2H])([2H])Oc1cc(SC)c(OC([2H])([2H])[2H])cc1CCN` [II-1, 2-(2,5-bis(methoxy-d3)-4-(methylthio)phenyl)ethan-1-amine] the Ki (5-HT2A receptor [1]) was over 150 nM, the Ki (5-HT2A receptor [1]; [9]) was 174 nM and the “HTR 15-25 min” value (mice; measured 0-15 min) was 21 ##. It also gave a half-life at 1 μM [4] of 5.7 min.
In the case of `COc1cc(SCCCF)c(OC)cc1CCN` [Compound I-4, 2-(4-((3-fluoropropyl)thio)-2,5-dimethoxyphenyl)ethan-1-amine], the “affinity at 5-HT2A receptors (in words)” value (5-HT2A receptor [1]) is reported as “high affinity”, the Ki (5-HT2A receptor [1]; [5]) is reported as 12 nM and the half-life at 1 μM [4] is reported as 11 min. The half-life at 1 μM (MAO-A) was 45 min.
`COc1cc(OCCCF)c(OC)cc1CCN` [Compound I-7, 2-(4-(3-fluoropropoxy)-2,5-dimethoxyphenyl)ethan-1-amine] showed a Ki (5-HT2A receptor [1]) of over 150 nM, a Ki (5-HT2A receptor [1]; [5]) of 2600 nM and a half-life at 1 μM [4] of over 120 min. It also gave a half-life at 1 μM (MAO-A) of over 120 min.
With `[2H]C([2H])(N)Cc1cc(OC)c(SC)cc1OC` [IV-1, 2-(2,5-dimethoxy-4-(methylthio)phenyl)ethan-1,1-d2-1-amine] the Ki (5-HT2A receptor [1]) was over 150 nM, the Ki (5-HT2A receptor [1]; [9]) was 357 nM and the half-life at 1 μM [4] was 5.3 min.
